SMILES strings stand for the structures.

This note sets out measurements from patent US11207330B2, “Mirtazapine for use in medication overuse headache based on tension-type headache” (Curatis AG, priority 2019, dated 2021).

Assay [1] relates to patients with daily medication overuse headache (MOH) based on tension-type headache. As to the kind of experiment: Headache diary AUC (headache duration multiplied with headache intensity) in MOH patients, placebo then mirtazapine. To be noted: for AUC (sum of daily headache duration multiplied with headache intensity): 15 to 30 mg mirtazapine per day for 8 weeks, last four weeks of intake, analgesics allowed; for Reduction of AUC versus placebo: mirtazapine 15 to 30 mg per day vs placebo period, last four weeks. Type of assay: in vivo, human. The procedure: (§1) a) Patients had daily medication overuse headache (MOH) originating from daily analgesic use primarily against tension-type headache as primary headache. They were treated first with placebo for 8 weeks, followed by two weeks of wash-out (taking placebo), and then administration of 15 to 30 mg of mirtazapine per day for 8 weeks. During that time they were allowed to continue taking their analgesics as usual, if they felt it was necessary.
At the same time, they had to keep a diary where they had to write down the frequency and duration of their headache as well as the headache intensity. After completion of the study the diaries were evaluated and the daily recordings of headache duration was multiplied with headache intensity to give the “AUC”, which means “area under the curve”. The results shown in table 1 and table 2 below are from the last four weeks of intake of either placebo or mirtazapine. […] It can be seen that both patients experienced improvement of their headache upon administration of mirtazapine.
FIG. 1 depicts the subjective well-being of patients, i.e. decreased number of headache attacks, shorter headache attacks with lower headache intensity. The lower the count of the y-axis, the better is the subjective well-being. AUC means area under the curve. AUC was calculated as the sum of the daily recordings of headache duration multiplied with headache intensity.

Assay [2] shares this test system. Briefly: Intake of overused analgesic medication recorded by the same MOH patients. Type of assay: in vivo, human. To be noted: for Analgesics Usage: 15 to 30 mg mirtazapine per day for 8 weeks, last four weeks of intake; for Reduction of Analgesics Usage versus placebo: mirtazapine 15 to 30 mg per day vs placebo period, last four weeks. The procedure:
as §1
b) Moreover, the intake of overused analgesic medication was recorded by the same patients and during the time frame as described above in (a). Patient 1 reduced the intake of overused medication by 80% (Table 2). As for patient 2, the reduction is 15%, whereby both patients additionally benefit from improved well-being, i.e. from decreased number of headache attacks, shorter headache attacks with lower headache intensity (see above).

On to `CN1CCN2c3ncccc3Cc3ccccc3C2C1` (racemic) [Mirtazapine, (RS)-(±)-2-methyl-1,2,3,4,10,14b-hexahydropyrazino[2,1-a]pyrido[2,3-c][2]benzazepine], for which the “AUC (sum of daily headache duration multiplied with headache intensity)” value in assay [1] (Patient 1) is 420; in assay [1] (Patient 2), 895. Moreover, the “Reduction of AUC versus placebo” value in assay [1] (Patient 1) is 62%; in assay [1] (Patient 2) it was 34%. Also, the “Analgesics Usage” value is 2 in assay [2] (Patient 1) and 47 in assay [2] (Patient 2). Also, the “Reduction of Analgesics Usage versus placebo” value stood at 80% in assay [2] (Patient 1); 80% in assay [2] (Patient 1, listed as mirtazapine); 15% in assay [2] (Patient 2); 15% in assay [2] (Patient 2, listed as mirtazapine).
